Data reported in patent US10155766B2, “Pyrazolopyrimidine antibacterial agents” (priority 2016, dated 2018).

Legend:
[1] = test system: Burkholderia thailandensis (E 264); assay: microbe, parasite or virus in culture; format: cell-based; details: for zone of inhibition at 100 µM / zone of inhibition at 500 µM / zone of inhibition at 1000 µM: Burkholderia thailandensis, read-out: Zone of inhibition (diameter, in millimeter) B. thailandensis; for zone of inhibition at 100 µM: Conc. 0.1 mM; for zone of inhibition at 500 µM: Conc. 0.5 mM; for zone of inhibition at 1000 µM: Conc. 1.0 mM
[2] = test system: Pseudomonas aeruginosa (ATCC 27853); assay: microbe, parasite or virus in culture; format: cell-based; details: for zone of inhibition at 100 µM / zone of inhibition at 500 µM / zone of inhibition at 1000 µM: Pseudomonas aeruginosa, ATCC27853, read-out: Zone of inhibition (diameter, in millimeter) P. aeruginosa; for zone of inhibition at 100 µM: Conc. 0.1 mM; for zone of inhibition at 500 µM: Conc. 0.5 mM; for zone of inhibition at 1000 µM: Conc. 1.0 mM
BtIspD = biological target: T1, BtIspD (Burkholderia thailandensis, UniProt Q2SWT6); format: binding
T1 construct: 6xHis (AVA0421 vector, 3C-cleavable) (N, cleaved yes); made in house; host or cells: E. coli BL21(DE3)R3 Rosetta Oxford
T1 sequence (Q2SWT6 1-236): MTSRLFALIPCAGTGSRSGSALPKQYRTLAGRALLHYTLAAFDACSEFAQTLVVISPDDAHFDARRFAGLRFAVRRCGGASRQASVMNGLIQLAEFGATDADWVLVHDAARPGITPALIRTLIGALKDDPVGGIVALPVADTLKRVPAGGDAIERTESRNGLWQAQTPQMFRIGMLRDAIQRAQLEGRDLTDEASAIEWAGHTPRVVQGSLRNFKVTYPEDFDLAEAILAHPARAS

[3] = biological target: T2, Mycobacterium paratuberculosis (Mp) IspD (Mycolicibacterium paratuberculosis, UniProt Q743W5); format: binding
T2 sequence (Q743W5 1-235): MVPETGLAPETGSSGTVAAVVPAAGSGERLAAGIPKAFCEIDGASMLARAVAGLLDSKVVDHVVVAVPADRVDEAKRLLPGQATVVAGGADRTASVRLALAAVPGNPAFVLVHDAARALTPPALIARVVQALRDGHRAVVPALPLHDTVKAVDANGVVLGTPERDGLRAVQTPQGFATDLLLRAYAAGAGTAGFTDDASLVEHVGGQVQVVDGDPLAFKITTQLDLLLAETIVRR

[4] = test system: Mycobacterium abscessus (Ma) IspE; format: binding
BpIspF = BpIspF (Burkholderia pseudomallei, UniProt Q63T71); format: binding, B. pseudomallei
Sequence of BpIspF (Q63T71 whole entry, looked up): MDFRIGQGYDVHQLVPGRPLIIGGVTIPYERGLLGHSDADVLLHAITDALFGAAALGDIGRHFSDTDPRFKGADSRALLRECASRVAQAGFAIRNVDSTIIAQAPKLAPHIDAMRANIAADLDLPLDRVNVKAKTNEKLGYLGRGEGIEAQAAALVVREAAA

[5] = Solubility observed in work-up; details: in water and ethyl acetate
BtIspE = format: binding, Burkholderia thailandensis

Cn1ncc2c(NCc3ccc(Cl)cc3)ncnc21 [Compound 17]
growth inhibition of B. thailandensis (in words) [1]: did not show measurable growth inhibition
zone of inhibition at 100 µM [1]: 0 mm
zone of inhibition at 500 µM [1]: 0 mm
zone of inhibition at 1000 µM [1]: 0 mm
growth inhibition of P. aeruginosa (in words) [2]: did not show measurable growth inhibition
zone of inhibition at 100 µM [2]: 0 mm
zone of inhibition at 500 µM [2]: 0 mm
zone of inhibition at 1000 µM [2]: 0 mm
STD-NMR binding to BtIspD (in words) (BtIspD): strongest binders
fragment binding to MpIspD (in words) [3]: hit and clear fragment binder
fragment binding to MaIspE (in words) [4]: hit and clear fragment binder
fragment binding to BpIspF (in words) (BpIspF): very weak binder below the STD-NMR hit threshold
melting point: 197 to 199 °C

Cn1ncc2c(NCCO)ncnc21 [Compound 3]
zone of inhibition at 100 µM [1]: 0 mm
zone of inhibition at 500 µM [1]: 0 mm
zone of inhibition at 1000 µM [1]: 0 mm
zone of inhibition at 100 µM [2]: 0 mm
zone of inhibition at 500 µM [2]: 15 mm
zone of inhibition at 1000 µM [2]: 21 mm
melting point: 196 to 198 °C
solubility (in words) [5]: partially soluble

Cn1ncc2c(NCc3ccc(Cl)c(Cl)c3)ncnc21 [Compound 18]
zone of inhibition at 100 µM [1]: 0 mm
zone of inhibition at 500 µM [1]: 12 mm
zone of inhibition at 1000 µM [1]: 18 mm
zone of inhibition at 100 µM [2]: 0 mm
zone of inhibition at 500 µM [2]: 10 mm
zone of inhibition at 1000 µM [2]: 20 mm
STD-NMR binding to BtIspD (in words) (BtIspD): strongest binders
STD-NMR binding to BtIspE (in words) (BtIspE): high % STD values
melting point: 170 to 173 °C
